pIC50: −log10 of the molar value.
What follows are compounds tested against T1, human CRHR2-alpha (Homo sapiens, UniProt Q13324) (assay: cAMP functional assay for human CRHR2 (LANCE Ultra cAMP, TR-FRET)). Conditions: CHO-K1 cells expressing human CRHR2-alpha, agonist human urocortin2 at EC80, cAMP; read-out: IC50 against CRHR2.
T1 sequence (Q13324 1-411): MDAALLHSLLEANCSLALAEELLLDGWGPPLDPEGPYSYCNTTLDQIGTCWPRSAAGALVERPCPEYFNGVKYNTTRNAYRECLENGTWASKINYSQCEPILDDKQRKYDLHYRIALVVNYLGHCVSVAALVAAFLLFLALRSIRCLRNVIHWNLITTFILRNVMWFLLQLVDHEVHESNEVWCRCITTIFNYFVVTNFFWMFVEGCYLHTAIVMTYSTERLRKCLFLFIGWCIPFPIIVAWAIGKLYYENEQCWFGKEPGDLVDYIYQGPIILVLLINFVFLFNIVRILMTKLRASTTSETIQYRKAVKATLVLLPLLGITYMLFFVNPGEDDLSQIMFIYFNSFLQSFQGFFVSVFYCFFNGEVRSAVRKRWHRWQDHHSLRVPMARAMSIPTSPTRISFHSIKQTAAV
Assay type: cell-based
Summary of the method: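 First, starved and frozen CHO-K1 cells expressing the receptor are thawed into IBMX-containing HBSS buffer (pH 7.4). Next, compounds are added for 30 min at 25° C. Then agonist at EC80 (urocortin2 or CRF, per receptor) is added for another 30 min, followed by cAMP detection reagents.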

pIC50	Compound
> 6.52	O=C(NC1CC1)c1ccc(-n2c(=O)n(C[C@H]3CC[C@H](NC(=O)c4cc(Cl)cnc4C(F)F)CC3)c3ccccc32)cn1 [Example 585, 5-(3-(((1r,4r)-4-(5-chloro-2-(difluoromethyl)nicotinamido)cyclohexyl)methyl)-2-oxo-2,3-dihydro-1H-benzo[d]imidazol-1-yl)-N-cyclopropyl-picolinamide]
> 6.52	COCCNc1ccc(-n2c(=O)n(C[C@H]3CC[C@H](NC(=O)c4cc(Cl)cnc4C)CC3)c3ccccc32)cn1 [Example 593, 5-chloro-N-((1r,4r)-4-((3-(6-((2-methoxyethyl)amino)pyridin-3-yl)-2-oxo-2,3-dihydro-1H-benzo[d]imidazol-1-yl)methyl)cyclo-hexyl)-2-methylnicotinamide]
> 6.52	CNc1ccc(-n2c(=O)n(C[C@H]3CC[C@H](NC(=O)c4cc(Cl)cnc4C)CC3)c3cc(F)ccc32)cn1 [Example 624, 5-chloro-N-((1r,4r)-4-((6-fluoro-3-(6-(methylamino)pyridin-3-yl)-2-oxo-2,3-dihydro-1H-benzo[d]imidazol-1-yl)methyl)cyclohexyl)-2-methylnicotinamide]
> 6.52	CNc1ccc(-n2c(=O)n(C[C@H]3CC[C@H](NC(=O)c4cc(Cl)cnc4C)CC3)c3ccc(F)cc32)cn1 [Example 625, 5-chloro-N-((1r,4r)-4-((5-fluoro-3-(6-(methylamino)pyridin-3-yl)-2-oxo-2,3-dihydro-1H-benzo[d]imidazol-1-yl)methyl)cyclohexyl)-2-methylnicotinamide]
> 6.52	CNc1ccc(-n2c(=O)n(C[C@H]3CC[C@H](NC(=O)c4cc(Cl)cnc4C(F)F)CC3)c3ccc(F)cc32)cn1 [Example 626, 5-chloro-2-(difluoromethyl)-N-((1r,4r)-4-((5-fluoro-3-(6-(methylamino)pyridin-3-yl)-2-oxo-2,3-dihydro-1H-benzo [d]imidazol-1-yl)methyl)cyclohexyl)nicotinamide]
> 6.52	N#Cc1cc(F)ccc1-n1c(=O)n(C[C@H]2CC[C@H](NC(=O)c3cc(Cl)cnc3C(F)F)CC2)c2ccccc21 [Example 627, 5-chloro-N-((1r,4r)-4-((3-(2-cyano-4-fluorophenyl)-2-oxo-2,3-dihydro-1H-benzo[d]imidazol-1-yl)methyl)cyclohexyl)-2-(difluoromethyl)nicotinamide]
> 6.52	CNC(=O)c1ccc(-n2c(=O)n(C[C@H]3CC[C@H](NC(=O)c4cc(Cl)cnc4C(F)F)CC3)c3cccc(F)c32)cn1 [Example 628, 5-(3-(((1 r,4r)-4-(5-chloro-2-(difluoromethyl)nicotinamido)cyclohexyl)methyl)-7-fluoro-2-oxo-2,3-dihydro-1H-benzo [d]imidazol-1-yl)-N-methylpicolinamide]
> 6.52	O=C(N[C@H]1CC[C@H](Cn2c(=O)n(-c3ccccc3Cl)c3cccnc32)CC1)c1cc(Cl)cnc1C(F)F [Example 630, 5-chloro-N-((1r,4r)-4-((1-(2-chlorophenyl)-2-oxo-1H-imidazo[4,5-b]pyridin-3(2H)-yl)methyl)cyclohexyl)-2-(difluoromethyl)nicotinamide]
> 6.52	COc1ccc(Cl)c(-n2c(=O)n(C[C@H]3CC[C@H](NC(=O)c4cc(Cl)cnc4C(F)F)CC3)c3cnccc32)c1 [Example 631, 5-chloro-N-((1r,4r)-4-((1-(2-chloro-5-methoxyphenyl)-2-oxo-1H-imidazo[4,5-c]pyridin-3(2H)-yl)methyl)cyclohexyl)-2-(difluoromethyl) nicotinamide]
> 6.52	Cc1ncc(Cl)cc1C(=O)N[C@H]1CC[C@H](Cn2c(=O)n(-c3ccc(-c4c[nH]nn4)cc3)c3ccccc32)CC1 [Example 633, N-((1r,4r)-4-((3-(4-(1H-1,2,3-triazol-4-yl)phenyl)-2-oxo-2,3-dihydro-1H-benzo[d]imidazol-1-yl)methyl)cyclohexyl)-5-chloro-2-methylnicotinamide]
> 6.52	Cc1ncc(Cl)cc1C(=O)N[C@H]1CC[C@H](Cn2c(=O)n(-c3ccc(-c4cocn4)cc3)c3ccccc32)CC1 [Example 635, 5-chloro-2-methyl-N-((1r,4r)-4-((3-(4-(oxazol-4-yl)phenyl)-2-oxo-2,3-dihydro-1H-benzo [d]imidazol-1-yl)methyl)cyclo-hexyl)nicotinamide]
> 6.52	Cc1ncc(Cl)cc1C(=O)N[C@H]1CC[C@H](Cn2c(=O)n(-c3cncc(-n4cccn4)c3)c3ccccc32)CC1 [Example 636, N-((1r,4r)-4-((3-(5-(1H-pyrazol-1-yl)pyridin-3-yl)-2-oxo-2,3-dihydro-1H-benzo[d]imidazol-1-yl)methyl)cyclohexyl)-5-chloro-2-methylnicotinamide]
> 6.52	Cc1ncc(Cl)cc1C(=O)N[C@H]1CC[C@H](Cn2c(=O)n(-c3ccc(-n4cccn4)nc3)c3ccccc32)CC1 [Example 637, N-((1r,4r)-4-((3-(6-(1H-pyrazol-1-yl)pyridin-3-yl)-2-oxo-2,3-dihydro-1H-benzo[d]imidazol-1-yl)methyl)cyclohexyl)-5-chloro-2-methylnicotinamide]
> 6.52	O=C(N[C@H]1CC[C@H](Cn2c(=O)n(-c3cnc(OCCO)c(F)c3)c3ccccc32)CC1)c1cc(Cl)cnc1C(F)F [Example 638, 5-chloro-2-(difluoromethyl)-N-((1r,4r)-4-((3-(5-fluoro-6-(2-hydroxyethoxy)pyridin-3-yl)-2-oxo-2,3-dihydro-1H-benzo[d]imidazol-1-yl)methyl)cyclohexyl)nicotinamide]
> 6.52	CNc1ncc(-n2c(=O)n(C[C@H]3CC[C@H](NC(=O)c4cc(Cl)cnc4C(F)F)CC3)c3ccccc32)cc1F [Example 639, 5-chloro-2-(difluoromethyl)-N-((1r,4r)-4-((3-(5-fluoro-6-(methylamino)pyridin-3-yl)-2-oxo-2,3-dihydro-1H-benzo[d]imidazol-1-yl)methyl)cyclohexyl)nicotinamide]
> 6.52	O=C(N[C@H]1CC[C@H](Cn2c(=O)n(-c3ccc(N4CCNC4=O)nc3)c3ccccc32)CC1)c1cc(Cl)cnc1C(F)(F)F [Example 640, 5-chloro-N-((1r,4r)-4-((2-oxo-3-(6-(2-oxoimidazolidin-1-yl)pyridin-3-yl)-2,3-dihydro-1H-benzo[d]imidazol-1-yl)methyl)cyclohexyl)-2-(trifluoromethyl) nicotinamide]
> 6.52	O=C(N[C@H]1CC[C@H](Cn2c(=O)n(-c3ccc(N4CCCC4=O)nc3)c3ccccc32)CC1)c1cc(Cl)cnc1C(F)(F)F [Example 641, 5-chloro-N-((1r,4r)-4-((2-oxo-3-(6-(2-oxopyrrolidin-1-yl)pyridin-3-yl)-2,3-dihydro-1H-benzo[d]imidazol-1-yl)methyl)cyclohexyl)-2-(trifluoromethyl) nicotinamide]
> 6.52	CCC(=O)Nc1ccc(-n2c(=O)n(C[C@H]3CC[C@H](NC(=O)c4cc(Cl)cnc4C(F)(F)F)CC3)c3ccccc32)cn1 [Example 643, 5-chloro-N-((1r,4r)-4-((2-oxo-3-(6-propionamido-pyridin-3-yl)-2,3-dihydro-1H-benzo[d]imidazol-1-yl)methyl)cyclohexyl)-2-(tri-fluoromethyl)nicotinamide]
> 6.52	Cc1nc2cc(-n3c(=O)n(C[C@H]4CC[C@H](NC(=O)c5cc(Cl)cnc5C)CC4)c4ccccc43)ccc2s1 [Example 645, 5-chloro-2-methyl-N-((1r,4r)-4-((3-(2-methylbenzo[d]thiazol-5-yl)-2-oxo-2,3-dihydro-1H-benzo[d]imidazol-1-yl)methyl)cyclohexyl) nicotinamide]

From patent publication US11802120B2, “Fused cyclic urea derivatives as CRHR2 antagonist” (RaQualia Pharma Inc., priority 2018, dated 2023)
